Test results: patent publication US11697648B2, “Fused pyrimidine pyridinone compounds as JAK inhibitors” (THERAVANCE BIOPHARMA R&D IP, LLC, priority 2019, dated 2023)

Experiments:
[1] = target: Tyk2 (Homo sapiens (Human), UniProt P29597); experiment: Biochemical Tyk2 kinase assay (LanthaScreen)
Procedure, shortened: (§1)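 GST-JAK + GFP-STAT1 peptide, HEPES pH 7.5/MgCl2/EGTA/Brij-35 buffer; cpd preincubation 1 h RT; ATP start, 1 h RT; stop with 10 mM EDTA + 2 nM Tb-anti-pSTAT1; TR-FRET 520/495. 4-parameter IC50 → pKi (Cheng-Prusoff).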

[2] = target: JAK2 (Homo sapiens (Human), UniProt O60674); experiment: Biochemical JAK2 kinase assay (LanthaScreen)
Procedure, shortened: as §1

[3] = target: JAK3 (Homo sapiens (Human), UniProt P52333); experiment: Biochemical JAK3 kinase assay (LanthaScreen); settings: for JAK3 (pKi)-JAK1 (pKi): selectivity JAK3 over JAK1, difference of pKi
Procedure, shortened: as §1

[4] = target: JAK1 (Homo sapiens (Human), UniProt P23458); experiment: Biochemical JAK1 kinase assay (LanthaScreen)
Procedure, shortened: as §1

[5] = test system: Caco-2 cell monolayers; experiment: Caco-2 permeation assay; type: in vitro ADME; settings: 5 μM, A-B direction, with Verapamil (25 μM)
Procedure, shortened: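 Passive A-to-B permeability with P-gp inhibited by verapamil (25 μM); compound at 5 μM, n=2. Both compartments sampled at t0 and t120 and quantified by LC-MS/MS, giving apparent permeability in cm/sec from flux, area and concentration.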

[6] = test system: IL-2 stimulated STAT5 phosphorylation in Tall-1 human T cell line (JAK3); experiment: Cellular JAK3 potency assay: inhibition of IL-2 stimulated pSTAT5 in Tall-1 T cells; type: cell-based; settings: IL-2 stimulated pSTAT5, Tall-1 T cells
Procedure, shortened: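 AlphaLISA SureFire Ultra measures STAT5 Tyr694/699 phosphorylation in lysed Tall-1 human T cells. Cells were exposed to compound for 1 h at 37 °C before a 30 min IL-2 challenge (300 ng/ml final). Values are pIC50 means with standard deviation from signal-versus-concentration curves.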

JAK3, sequence (P52333 whole entry): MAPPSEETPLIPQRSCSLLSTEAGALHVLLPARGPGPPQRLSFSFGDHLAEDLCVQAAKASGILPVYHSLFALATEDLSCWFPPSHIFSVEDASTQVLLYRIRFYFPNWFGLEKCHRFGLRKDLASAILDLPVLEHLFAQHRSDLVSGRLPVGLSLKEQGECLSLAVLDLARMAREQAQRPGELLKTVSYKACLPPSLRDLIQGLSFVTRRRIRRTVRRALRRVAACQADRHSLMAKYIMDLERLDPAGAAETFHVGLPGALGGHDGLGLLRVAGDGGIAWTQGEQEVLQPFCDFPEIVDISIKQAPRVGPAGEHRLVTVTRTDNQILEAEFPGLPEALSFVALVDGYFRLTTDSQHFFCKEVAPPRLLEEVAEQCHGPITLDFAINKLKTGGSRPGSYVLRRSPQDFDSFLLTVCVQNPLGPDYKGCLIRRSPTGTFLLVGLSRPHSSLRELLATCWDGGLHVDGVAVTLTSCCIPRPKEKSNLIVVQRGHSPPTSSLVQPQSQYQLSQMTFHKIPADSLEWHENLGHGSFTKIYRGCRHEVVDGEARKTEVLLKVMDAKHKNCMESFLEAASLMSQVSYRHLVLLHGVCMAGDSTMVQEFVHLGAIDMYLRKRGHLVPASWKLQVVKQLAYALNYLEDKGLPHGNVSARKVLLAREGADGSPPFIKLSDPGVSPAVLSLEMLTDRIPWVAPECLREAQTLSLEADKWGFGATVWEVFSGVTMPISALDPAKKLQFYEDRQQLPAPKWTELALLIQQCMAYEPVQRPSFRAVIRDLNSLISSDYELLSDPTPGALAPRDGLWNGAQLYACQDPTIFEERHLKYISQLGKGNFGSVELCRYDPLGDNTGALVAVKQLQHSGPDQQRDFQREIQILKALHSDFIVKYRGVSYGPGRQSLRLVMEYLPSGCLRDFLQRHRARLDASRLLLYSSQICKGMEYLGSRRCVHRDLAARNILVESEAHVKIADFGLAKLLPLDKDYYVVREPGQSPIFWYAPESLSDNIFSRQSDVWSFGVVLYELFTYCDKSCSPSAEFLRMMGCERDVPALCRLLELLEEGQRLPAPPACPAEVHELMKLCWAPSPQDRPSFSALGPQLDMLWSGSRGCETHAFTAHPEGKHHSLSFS
JAK2, sequence (O60674 whole entry): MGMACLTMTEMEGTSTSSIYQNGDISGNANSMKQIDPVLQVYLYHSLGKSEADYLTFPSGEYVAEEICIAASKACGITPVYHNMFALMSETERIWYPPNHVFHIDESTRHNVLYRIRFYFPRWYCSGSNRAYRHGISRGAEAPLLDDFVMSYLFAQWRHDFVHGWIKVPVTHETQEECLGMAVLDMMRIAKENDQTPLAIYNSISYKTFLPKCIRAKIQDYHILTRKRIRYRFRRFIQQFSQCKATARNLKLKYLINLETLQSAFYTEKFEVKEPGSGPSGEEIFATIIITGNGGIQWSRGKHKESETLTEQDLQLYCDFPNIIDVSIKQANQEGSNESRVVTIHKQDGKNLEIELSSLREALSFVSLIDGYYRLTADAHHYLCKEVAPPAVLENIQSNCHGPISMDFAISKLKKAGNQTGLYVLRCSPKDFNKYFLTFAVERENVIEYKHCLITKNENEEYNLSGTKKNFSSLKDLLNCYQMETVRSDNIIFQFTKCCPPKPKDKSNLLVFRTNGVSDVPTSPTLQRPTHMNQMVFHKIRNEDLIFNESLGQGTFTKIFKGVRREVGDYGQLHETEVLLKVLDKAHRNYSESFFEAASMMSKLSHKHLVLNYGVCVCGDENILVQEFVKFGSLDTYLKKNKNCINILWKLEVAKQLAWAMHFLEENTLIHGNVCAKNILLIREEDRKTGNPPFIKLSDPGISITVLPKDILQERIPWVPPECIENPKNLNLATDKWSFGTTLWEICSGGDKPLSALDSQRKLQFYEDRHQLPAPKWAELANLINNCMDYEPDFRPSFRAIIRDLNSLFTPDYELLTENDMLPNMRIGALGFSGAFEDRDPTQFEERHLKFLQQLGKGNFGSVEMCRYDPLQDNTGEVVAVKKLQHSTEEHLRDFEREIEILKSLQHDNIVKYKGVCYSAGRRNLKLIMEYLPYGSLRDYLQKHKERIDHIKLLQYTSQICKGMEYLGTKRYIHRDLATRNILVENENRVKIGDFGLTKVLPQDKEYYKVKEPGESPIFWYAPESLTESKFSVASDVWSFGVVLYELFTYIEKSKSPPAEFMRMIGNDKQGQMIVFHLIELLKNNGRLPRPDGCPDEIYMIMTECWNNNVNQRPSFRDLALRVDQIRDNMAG
JAK1, sequence (P23458 whole entry): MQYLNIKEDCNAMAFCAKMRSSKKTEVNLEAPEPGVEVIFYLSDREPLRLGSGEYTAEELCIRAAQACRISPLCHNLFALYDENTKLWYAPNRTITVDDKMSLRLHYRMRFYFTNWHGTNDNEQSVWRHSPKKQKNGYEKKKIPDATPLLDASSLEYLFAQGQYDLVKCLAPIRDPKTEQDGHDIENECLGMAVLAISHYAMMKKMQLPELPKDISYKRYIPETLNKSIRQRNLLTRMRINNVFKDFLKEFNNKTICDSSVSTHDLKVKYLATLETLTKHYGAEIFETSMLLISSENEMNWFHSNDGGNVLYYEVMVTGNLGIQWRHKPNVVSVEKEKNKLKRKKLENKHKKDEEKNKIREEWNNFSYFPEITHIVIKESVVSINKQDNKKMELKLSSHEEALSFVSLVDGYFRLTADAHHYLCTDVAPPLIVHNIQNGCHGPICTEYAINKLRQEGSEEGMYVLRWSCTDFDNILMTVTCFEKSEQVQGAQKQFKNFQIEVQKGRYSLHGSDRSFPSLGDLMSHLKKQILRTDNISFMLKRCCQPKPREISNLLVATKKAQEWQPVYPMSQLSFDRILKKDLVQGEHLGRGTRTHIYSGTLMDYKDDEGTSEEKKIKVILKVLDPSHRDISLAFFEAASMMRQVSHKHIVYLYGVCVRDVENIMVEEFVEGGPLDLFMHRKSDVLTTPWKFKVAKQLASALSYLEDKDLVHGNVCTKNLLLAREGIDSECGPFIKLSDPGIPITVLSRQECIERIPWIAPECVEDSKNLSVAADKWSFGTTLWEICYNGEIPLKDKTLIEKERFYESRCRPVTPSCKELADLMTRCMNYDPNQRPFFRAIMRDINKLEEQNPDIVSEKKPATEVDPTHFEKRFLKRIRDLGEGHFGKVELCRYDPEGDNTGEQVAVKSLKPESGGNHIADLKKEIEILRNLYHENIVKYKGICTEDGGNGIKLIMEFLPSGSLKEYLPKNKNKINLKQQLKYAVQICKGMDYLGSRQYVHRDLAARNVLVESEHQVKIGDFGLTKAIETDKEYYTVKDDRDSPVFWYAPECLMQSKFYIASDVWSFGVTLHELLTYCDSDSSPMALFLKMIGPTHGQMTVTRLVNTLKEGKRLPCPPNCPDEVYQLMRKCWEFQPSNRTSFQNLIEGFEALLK
Tyk2, sequence (P29597 whole entry): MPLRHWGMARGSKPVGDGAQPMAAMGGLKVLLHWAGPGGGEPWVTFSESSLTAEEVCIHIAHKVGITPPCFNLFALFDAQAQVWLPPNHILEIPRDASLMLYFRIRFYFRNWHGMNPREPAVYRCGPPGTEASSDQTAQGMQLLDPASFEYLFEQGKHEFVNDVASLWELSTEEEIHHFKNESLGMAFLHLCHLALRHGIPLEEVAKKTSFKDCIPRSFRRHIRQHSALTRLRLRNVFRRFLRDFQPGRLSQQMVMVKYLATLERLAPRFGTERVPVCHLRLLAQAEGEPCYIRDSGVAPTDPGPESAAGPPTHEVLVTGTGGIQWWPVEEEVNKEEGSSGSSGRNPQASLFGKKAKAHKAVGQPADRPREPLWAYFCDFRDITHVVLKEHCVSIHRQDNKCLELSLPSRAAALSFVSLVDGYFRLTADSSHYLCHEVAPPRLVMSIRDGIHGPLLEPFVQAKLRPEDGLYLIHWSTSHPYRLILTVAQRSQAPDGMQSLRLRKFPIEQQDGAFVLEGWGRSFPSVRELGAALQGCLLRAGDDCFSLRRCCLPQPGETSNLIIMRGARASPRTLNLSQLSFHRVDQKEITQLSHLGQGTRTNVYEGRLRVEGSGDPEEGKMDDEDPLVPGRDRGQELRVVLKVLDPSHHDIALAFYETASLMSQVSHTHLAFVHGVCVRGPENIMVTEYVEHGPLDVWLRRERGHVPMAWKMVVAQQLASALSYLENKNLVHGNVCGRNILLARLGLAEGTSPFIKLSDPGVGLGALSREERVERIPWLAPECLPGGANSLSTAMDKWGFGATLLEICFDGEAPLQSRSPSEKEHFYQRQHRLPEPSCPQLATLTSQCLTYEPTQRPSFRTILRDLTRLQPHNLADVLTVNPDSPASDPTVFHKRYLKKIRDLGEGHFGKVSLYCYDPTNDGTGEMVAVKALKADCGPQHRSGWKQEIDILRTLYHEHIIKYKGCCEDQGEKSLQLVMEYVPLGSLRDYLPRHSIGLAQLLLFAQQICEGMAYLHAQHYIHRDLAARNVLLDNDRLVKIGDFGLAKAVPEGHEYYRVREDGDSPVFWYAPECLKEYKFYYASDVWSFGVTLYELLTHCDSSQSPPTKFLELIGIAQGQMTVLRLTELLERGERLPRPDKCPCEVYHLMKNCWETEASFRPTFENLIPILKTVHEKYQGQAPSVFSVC

## C=CC(=O)N1CCN(CCn2c(=O)ccc3cnc(Nc4cnn(C)c4)nc32)[C@@H](CO)C1 [Example 131]
[1]
  Tyk 2 (pKi): E (E represents a pKi value of 7 or below (Ki of 100 nM or above))
[2]
  JAK 2 (pKi): E (E represents a pKi value of 7 or below (Ki of 100 nM or above))
[3]
  JAK 3 (pKi): B (B represents pKi value between 9 and 10 (Ki between 1 nM and 0.1 nM))
  JAK3 (pKi)-JAK1 (pKi): A (A represents a value of 3 or above)
[4]
  JAK 1 (pKi): E (E represents a pKi value of 7 or below (Ki of 100 nM or above))
[5]
  Caco Kp: A (A represents a value below 5×10^−6 cm/sec)
[6]
  Tall-1 (pIC50): C (C represents a pIC50 value between 6 and 6.7 (IC50 between 1 μM and 200 nM))

## C=CC(=O)N1CC(CCn2c(=O)ccc3cnc(Nc4ccc(N5CCN(C)CC5)c(OC)c4)nc32)C1 [Example 135]
[1]
  Tyk 2 (pKi): E (E represents a pKi value of 7 or below (Ki of 100 nM or above))
[2]
  JAK 2 (pKi): E (E represents a pKi value of 7 or below (Ki of 100 nM or above))
[3]
  JAK 3 (pKi): B (B represents pKi value between 9 and 10 (Ki between 1 nM and 0.1 nM))
  JAK3 (pKi)-JAK1 (pKi): A (A represents a value of 3 or above)
[4]
  JAK 1 (pKi): E (E represents a pKi value of 7 or below (Ki of 100 nM or above))
[5]
  Caco Kp: A (A represents a value below 5×10^−6 cm/sec)
[6]
  Tall-1 (pIC50): B (B represents a pC50 value between 6.7 (included) and 7.5 (IC50 between 200 nM and 32 nM))

## C=CC(=O)N1CC(CCn2c(=O)ccc3cnc(Nc4ccc(N5CCN(C)CC5)c(O)c4)nc32)C1 [Example 136]
[1]
  Tyk 2 (pKi): E (E represents a pKi value of 7 or below (Ki of 100 nM or above))
[2]
  JAK 2 (pKi): E (E represents a pKi value of 7 or below (Ki of 100 nM or above))
[3]
  JAK 3 (pKi): B (B represents pKi value between 9 and 10 (Ki between 1 nM and 0.1 nM))
  JAK3 (pKi)-JAK1 (pKi): A (A represents a value of 3 or above)
[4]
  JAK 1 (pKi): E (E represents a pKi value of 7 or below (Ki of 100 nM or above))
[5]
  Caco Kp: A (A represents a value below 5×10^−6 cm/sec)
[6]
  Tall-1 (pIC50): A (A represents a pIC50 value≥7.5 (IC50≤32 nM))

## C=CC(=O)N1CC(CCn2c(=O)ccc3cnc(Nc4ccc(N5CCN(C)CC5)cn4)nc32)C1 [Example 137]
[1]
  Tyk 2 (pKi): E (E represents a pKi value of 7 or below (Ki of 100 nM or above))
[2]
  JAK 2 (pKi): E (E represents a pKi value of 7 or below (Ki of 100 nM or above))
[3]
  JAK 3 (pKi): B (B represents pKi value between 9 and 10 (Ki between 1 nM and 0.1 nM))
  JAK3 (pKi)-JAK1 (pKi): A (A represents a value of 3 or above)
[4]
  JAK 1 (pKi): E (E represents a pKi value of 7 or below (Ki of 100 nM or above))
[5]
  Caco Kp: A (A represents a value below 5×10^−6 cm/sec)
[6]
  Tall-1 (pIC50): B (B represents a pC50 value between 6.7 (included) and 7.5 (IC50 between 200 nM and 32 nM))

## C=CC(=O)N1CC(CCn2c(=O)ccc3cnc(Nc4ccc(N5CCN(C(=O)C(C)(C)O)CC5)cc4)nc32)C1 [Example 138]
[1]
  Tyk 2 (pKi): E (E represents a pKi value of 7 or below (Ki of 100 nM or above))
[2]
  JAK 2 (pKi): D (D represents a pKi value between 7 and 8 (Ki between 100 nM and 10 nM))
[3]
  JAK 3 (pKi): A (A represents a pKi value≥10 (Ki≤0.1 nM))
  JAK3 (pKi)-JAK1 (pKi): A (A represents a value of 3 or above)
[4]
  JAK 1 (pKi): E (E represents a pKi value of 7 or below (Ki of 100 nM or above))
[5]
  Caco Kp: A (A represents a value below 5×10^−6 cm/sec)
[6]
  Tall-1 (pIC50): B (B represents a pC50 value between 6.7 (included) and 7.5 (IC50 between 200 nM and 32 nM))

## C=CC(=O)N1CC(CCn2c(=O)ccc3cnc(Nc4ccc(N5CCN(C(=O)CC[S+](C)[O-])CC5)cc4)nc32)C1 (centres unmarked) [Example 139]
[1]
  Tyk 2 (pKi): E (E represents a pKi value of 7 or below (Ki of 100 nM or above))
[2]
  JAK 2 (pKi): E (E represents a pKi value of 7 or below (Ki of 100 nM or above))
[3]
  JAK 3 (pKi): A (A represents a pKi value≥10 (Ki≤0.1 nM))
  JAK3 (pKi)-JAK1 (pKi): A (A represents a value of 3 or above)
[4]
  JAK 1 (pKi): E (E represents a pKi value of 7 or below (Ki of 100 nM or above))
[5]
  Caco Kp: A (A represents a value below 5×10^−6 cm/sec)
[6]
  Tall-1 (pIC50): C (C represents a pIC50 value between 6 and 6.7 (IC50 between 1 μM and 200 nM))

## C=CC(=O)N1CC(CCn2c(=O)ccc3cnc(Nc4ccc(N5CCN(C(=O)CCS(C)(=O)=O)CC5)cc4)nc32)C1 [Example 140]
[1]
  Tyk 2 (pKi): E (E represents a pKi value of 7 or below (Ki of 100 nM or above))
[2]
  JAK 2 (pKi): E (E represents a pKi value of 7 or below (Ki of 100 nM or above))
[3]
  JAK 3 (pKi): A (A represents a pKi value≥10 (Ki≤0.1 nM))
  JAK3 (pKi)-JAK1 (pKi): A (A represents a value of 3 or above)
[4]
  JAK 1 (pKi): E (E represents a pKi value of 7 or below (Ki of 100 nM or above))
[5]
  Caco Kp: A (A represents a value below 5×10^−6 cm/sec)
[6]
  Tall-1 (pIC50): C (C represents a pIC50 value between 6 and 6.7 (IC50 between 1 μM and 200 nM))

## C=CC(=O)N1CC(CCn2c(=O)ccc3cnc(Nc4ccc(N5CCN(C)CC5)cc4F)nc32)C1 [Example 141]
[1]
  Tyk 2 (pKi): E (E represents a pKi value of 7 or below (Ki of 100 nM or above))
[2]
  JAK 2 (pKi): E (E represents a pKi value of 7 or below (Ki of 100 nM or above))
[3]
  JAK 3 (pKi): B (B represents pKi value between 9 and 10 (Ki between 1 nM and 0.1 nM))
  JAK3 (pKi)-JAK1 (pKi): A (A represents a value of 3 or above)
[4]
  JAK 1 (pKi): E (E represents a pKi value of 7 or below (Ki of 100 nM or above))
[5]
  Caco Kp: C (C represents a value between 10×10^−6 and 30×10^−6 cm/sec)
[6]
  Tall-1 (pIC50): B (B represents a pC50 value between 6.7 (included) and 7.5 (IC50 between 200 nM and 32 nM))

## C=CC(=O)N1CC(CCn2c(=O)ccc3cnc(Nc4ccc(N5CCC(C)CC5)cc4)nc32)C1 [Example 142]
[1]
  Tyk 2 (pKi): E (E represents a pKi value of 7 or below (Ki of 100 nM or above))
[2]
  JAK 2 (pKi): E (E represents a pKi value of 7 or below (Ki of 100 nM or above))
[3]
  JAK 3 (pKi): A (A represents a pKi value≥10 (Ki≤0.1 nM))
  JAK3 (pKi)-JAK1 (pKi): A (A represents a value of 3 or above)
[4]
  JAK 1 (pKi): E (E represents a pKi value of 7 or below (Ki of 100 nM or above))
[5]
  Caco Kp: C (C represents a value between 10×10^−6 and 30×10^−6 cm/sec)
[6]
  Tall-1 (pIC50): B (B represents a pC50 value between 6.7 (included) and 7.5 (IC50 between 200 nM and 32 nM))

## C=CC(=O)N1CC(CCn2c(=O)ccc3cnc(Nc4ccc(N5CCCCC5)cc4)nc32)C1 [Example 143]
[1]
  Tyk 2 (pKi): E (E represents a pKi value of 7 or below (Ki of 100 nM or above))
[2]
  JAK 2 (pKi): E (E represents a pKi value of 7 or below (Ki of 100 nM or above))
[3]
  JAK 3 (pKi): A (A represents a pKi value≥10 (Ki≤0.1 nM))
  JAK3 (pKi)-JAK1 (pKi): A (A represents a value of 3 or above)
[4]
  JAK 1 (pKi): E (E represents a pKi value of 7 or below (Ki of 100 nM or above))
[5]
  Caco Kp: C (C represents a value between 10×10^−6 and 30×10^−6 cm/sec)
[6]
  Tall-1 (pIC50): B (B represents a pC50 value between 6.7 (included) and 7.5 (IC50 between 200 nM and 32 nM))

## C=CC(=O)N1CCN(CCn2c(=O)ccc3cnc(Nc4ccc(N5CCN(C(=O)OC)CC5)cc4)nc32)CC1 [Example 145]
[1]
  Tyk 2 (pKi): E (E represents a pKi value of 7 or below (Ki of 100 nM or above))
[2]
  JAK 2 (pKi): E (E represents a pKi value of 7 or below (Ki of 100 nM or above))
[3]
  JAK 3 (pKi): B (B represents pKi value between 9 and 10 (Ki between 1 nM and 0.1 nM))
  JAK3 (pKi)-JAK1 (pKi): A (A represents a value of 3 or above)
[4]
  JAK 1 (pKi): E (E represents a pKi value of 7 or below (Ki of 100 nM or above))
[5]
  Caco Kp: B (B represents a value between 5×10^−6 and 10×10^−6 cm/sec)
[6]
  Tall-1 (pIC50): B (B represents a pC50 value between 6.7 (included) and 7.5 (IC50 between 200 nM and 32 nM))
